What was measured:
[1] = test system: ECHCG; test: greenhouse herbicidal test, post-emergence treatment; assay type: in vivo, Echinocloa crus-galli; conditions: post-emergence method, application rate 0.250 kg/ha; scale from 0 to 100
From the text: (§1) The culture containers used were plastic flowerpots containing loamy sand with approximately 3.0% of humus as the substrate. The seeds of the test plants were sown separately for each species.
(§2) For the pre-emergence treatment, the active ingredients, which had been suspended or emulsified in water, were applied directly after sowing by means of finely distributing nozzles. The containers were irrigated gently to promote germination and growth and subsequently covered with transparent plastic hoods until the test plants had rooted. This cover caused uniform germination of the test plants, unless this had been impaired by the active ingredients. For the post-emergence treatment, the test plants were first grown to a height of 3 to 15 cm, depending on the plant habit, and only then treated with the active ingredients which had been suspended or emulsified in water. For this purpose, the test plants were either sown directly and grown in the same containers, or they were first grown separately as seedlings and transplanted into the test containers a few days prior to treatment.
(§3) Depending on the species, the test plants were kept at 10-25° C. or 20-35° C., respectively. The test period extended over 2 to 4 weeks. During this time, the test plants were tended, and their response to the individual treatments was evaluated.
(§4) Evaluation was carried out using a scale from 0 to 100. […]

[2] = test system: AMARE; test: greenhouse herbicidal test, pre-emergence treatment; assay type: in vivo, Amaranthus retroflexus; conditions: pre-emergence method, application rate 0.250 kg/ha; scale from 0 to 100
From the text: as §1, §2, §3, §4

[3] = test system: AMARE; test: greenhouse herbicidal test, post-emergence treatment; assay type: in vivo, Amaranthus retroflexus; conditions: post-emergence method, scale from 0 to 100
From the text: as §1, §2, §3, §4

[4] = test system: ABUTH; test: as above; assay type: in vivo, Abutilon theophrasti; conditions: post-emergence method, application rate 0.250 kg/ha; scale from 0 to 100
From the text: as §1, §2, §3, §4

[5] = test system: ALOMY; test: as above; assay type: in vivo, Alopercurus myosuroides; conditions: post-emergence method, scale from 0 to 100
From the text: as §1, §2, §3
Evaluation was carried out using a scale from 0 to 100. 100 means no emergence of the test plants, or complete destruction of at least the aerial moieties, and 0 means no damage, or normal course of growth. A good herbicidal activity is given at values of 60 to 90 and a very good herbicidal activity is given at values of 90 to 100.
The test plants used in the greenhouse experiments were of the following species: […]

[6] = test system: ECHCG; test: greenhouse herbicidal test, pre-emergence treatment; assay type: in vivo, Echinocloa crus-galli; conditions: pre-emergence method, application rate 1,000 kg/ha; scale from 0 to 100
From the text: as §1, §2, §3, §4

[7] = test system: SETFA; test: as above; assay type: in vivo, Setaria faberi; conditions: pre-emergence method, application rate 1,000 kg/ha; scale from 0 to 100
From the text: as §1, §2, §3, §4

COC(=O)[C@@H]1C=C[C@H](NC(=O)C2(C)CC=C(c3cc(F)cc(F)c3)C2=O)C1 (stereo partly drawn) [I111, methyl (1S,4R)-4-[[3-(3,5-difluorophenyl)-1-methyl-2-oxo-cyclopent-3-ene-1-carbonyl]amino]cyclopent-2-ene-1-carboxylate]
herbicidal activity against ECHCG [1]: good (A good herbicidal activity is given at values of 60 to 90)

COC(=O)[C@@H]1C=C[C@H](NC(=O)C2(C(F)(F)F)CC(c3cc(F)cc(F)c3)=CO2)C1 (relative stereo) [I8]
herbicidal activity against AMARE [2]: good (A good herbicidal activity is given at values of 60 to 90)

COC(=O)C1CCC(NC(=O)C2(C)CC(c3cc(Cl)cc(Cl)c3)=CO2)C1 (stereo not shown) [I14]
herbicidal activity against AMARE ([3]; application rate 0.250 kg/ha): good (A good herbicidal activity is given at values of 60 to 90)
herbicidal activity against ABUTH [4]: good (A good herbicidal activity is given at values of 60 to 90)

COC(=O)[C@@H]1C=C[C@H](NC(=O)C2(C)CC(c3cc(Cl)cc(Cl)c3)=CO2)C1 (relative stereo) [I6]
herbicidal activity against ALOMY ([5]; application rate 0.250 kg/ha): very good (a very good herbicidal activity is given at values of 90 to 100)

COC(=O)C[C@H](C)NC(=O)C1(C)CC(c2cc(F)cc(F)c2)=CO1 (single isomer, unassigned) [I2]
herbicidal activity against ECHCG [6]: good (A good herbicidal activity is given at values of 60 to 90)
herbicidal activity against SETFA [7]: good (A good herbicidal activity is given at values of 60 to 90)
herbicidal activity against ALOMY ([5]; application rate 1.000 kg/ha): good (A good herbicidal activity is given at values of 60 to 90)

COC(=O)C[C@H](C)NC(=O)C1(C)CC(c2cc(Cl)cc(Cl)c2)=CO1 (single isomer, unassigned) [I3]
herbicidal activity against AMARE ([3]; application rate 1.000 kg/ha): very good (a very good herbicidal activity is given at values of 90 to 100)

COC(=O)C[C@H](C)NC(=O)C1(C)CC(c2cc(F)cc(F)c2)=CO1 (single isomer, unassigned) [I1]
herbicidal activity against ALOMY ([5]; application rate 1.000 kg/ha): very good (a very good herbicidal activity is given at values of 90 to 100)

— patent US20240279159A1, “HERBICIDAL ARYLCYCLOPENTENE CARBOXAMIDES” (BASF SE, priority 2021, published 2024)
